One series has as its system PMN (Neutrophil). The note with it: cited from earlier work.
The next series has as its target T1, TRPM2 (Mus musculus, UniProt Q91YD4).
T1 construct: endogenous in cells; host or cells: PMN (neutrophils), fMLP-stimulated; work retold from a cited abstract (J. Immunol. 2010, 184)
The settings on record: responses comparable to fMLP-stimulated TRPM2 KO PMN; cited from earlier work.

The target of the next series is T2, Nox4 (Homo sapiens, UniProt Q9NPH5).
T2 construct: endogenous in cells; host or cells: pulmonary vascular wall cells under hypoxia
T2 sequence (Q9NPH5 1-578): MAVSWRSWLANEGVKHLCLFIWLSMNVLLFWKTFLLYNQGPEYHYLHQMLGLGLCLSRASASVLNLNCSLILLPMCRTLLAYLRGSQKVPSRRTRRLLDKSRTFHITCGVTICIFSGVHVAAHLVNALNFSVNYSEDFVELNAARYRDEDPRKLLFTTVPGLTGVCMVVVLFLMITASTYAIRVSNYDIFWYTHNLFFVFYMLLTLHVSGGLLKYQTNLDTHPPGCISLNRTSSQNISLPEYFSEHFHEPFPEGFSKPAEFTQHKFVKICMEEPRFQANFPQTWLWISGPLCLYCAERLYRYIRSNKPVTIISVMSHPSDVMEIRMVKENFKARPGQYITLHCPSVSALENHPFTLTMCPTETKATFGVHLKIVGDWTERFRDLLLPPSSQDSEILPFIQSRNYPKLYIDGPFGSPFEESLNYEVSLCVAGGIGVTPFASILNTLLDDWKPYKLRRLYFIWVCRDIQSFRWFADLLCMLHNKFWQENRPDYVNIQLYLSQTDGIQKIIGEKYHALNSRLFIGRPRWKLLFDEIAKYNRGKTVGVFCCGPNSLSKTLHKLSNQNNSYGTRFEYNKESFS
T2 sequence (P13498 1-195 partner): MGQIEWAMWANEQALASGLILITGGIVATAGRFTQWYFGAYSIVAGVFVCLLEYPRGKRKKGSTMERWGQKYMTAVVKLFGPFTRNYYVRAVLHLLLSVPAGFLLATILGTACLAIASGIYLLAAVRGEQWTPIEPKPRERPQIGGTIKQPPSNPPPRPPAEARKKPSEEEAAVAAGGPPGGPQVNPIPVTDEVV
The settings on record: cited from earlier work.

Another series relates to polymicrobial sepsis. Description: Polymicrobial sepsis-induced lung injury. The note with it: H2 and/or NO treatment. Type of series: in vivo. The source says:
However until applicants' discovery, there has not been a successful combination of hydrogen gas with breathing gas using the claimed apparatus and methods. Applicants have discovered that NO's effect as an antioxidant may be enhanced by eliminating highly reactive by-products of NO inhalation such as peroxynitrite, by adding H2 to inhaled NO gas.

Another series relates to brain injury. The note with it: inhaled, acute rat model; cited from earlier work.
The subject of the next series is NF-κB. Description: LPS-induced pulmonary NF-κB activation. Format: in vivo, mice. The note with it: H2 and/or NO treatment.
The test system of series [1] is mice with intratracheal administration of LPS. The series is described as follows: LPS-induced lung injury in mice (intratracheal LPS). The settings on record: for lung injury after intratracheal LPS: 2% H2 and/or 20 ppm NO for 3 hours starting at 5 minutes or 3 hours after LPS; for pulmonary inflammation and cell apoptosis: H2 and/or NO treatment. Type of series: in vivo.

Series [2] has as its system CTGF. The settings on record: infusion, scleroderma patients; cited from earlier work.
Series [3] concerns CTGF. The note with it: fibroblasts exposed to TGF-β; cited from earlier work.
A further series relates to Angiotensin II. The settings on record: cited from earlier work.
For another series, the system named is neonatal piglets. The settings on record: short-term inhaled exposure; cited from earlier work.
In another series the test system is rats. The settings on record: inhaled; cited from earlier work.
The subject of another series is neonatal rats. The settings on record: cited from earlier work.

T1 sequence (Q91YD4 whole entry): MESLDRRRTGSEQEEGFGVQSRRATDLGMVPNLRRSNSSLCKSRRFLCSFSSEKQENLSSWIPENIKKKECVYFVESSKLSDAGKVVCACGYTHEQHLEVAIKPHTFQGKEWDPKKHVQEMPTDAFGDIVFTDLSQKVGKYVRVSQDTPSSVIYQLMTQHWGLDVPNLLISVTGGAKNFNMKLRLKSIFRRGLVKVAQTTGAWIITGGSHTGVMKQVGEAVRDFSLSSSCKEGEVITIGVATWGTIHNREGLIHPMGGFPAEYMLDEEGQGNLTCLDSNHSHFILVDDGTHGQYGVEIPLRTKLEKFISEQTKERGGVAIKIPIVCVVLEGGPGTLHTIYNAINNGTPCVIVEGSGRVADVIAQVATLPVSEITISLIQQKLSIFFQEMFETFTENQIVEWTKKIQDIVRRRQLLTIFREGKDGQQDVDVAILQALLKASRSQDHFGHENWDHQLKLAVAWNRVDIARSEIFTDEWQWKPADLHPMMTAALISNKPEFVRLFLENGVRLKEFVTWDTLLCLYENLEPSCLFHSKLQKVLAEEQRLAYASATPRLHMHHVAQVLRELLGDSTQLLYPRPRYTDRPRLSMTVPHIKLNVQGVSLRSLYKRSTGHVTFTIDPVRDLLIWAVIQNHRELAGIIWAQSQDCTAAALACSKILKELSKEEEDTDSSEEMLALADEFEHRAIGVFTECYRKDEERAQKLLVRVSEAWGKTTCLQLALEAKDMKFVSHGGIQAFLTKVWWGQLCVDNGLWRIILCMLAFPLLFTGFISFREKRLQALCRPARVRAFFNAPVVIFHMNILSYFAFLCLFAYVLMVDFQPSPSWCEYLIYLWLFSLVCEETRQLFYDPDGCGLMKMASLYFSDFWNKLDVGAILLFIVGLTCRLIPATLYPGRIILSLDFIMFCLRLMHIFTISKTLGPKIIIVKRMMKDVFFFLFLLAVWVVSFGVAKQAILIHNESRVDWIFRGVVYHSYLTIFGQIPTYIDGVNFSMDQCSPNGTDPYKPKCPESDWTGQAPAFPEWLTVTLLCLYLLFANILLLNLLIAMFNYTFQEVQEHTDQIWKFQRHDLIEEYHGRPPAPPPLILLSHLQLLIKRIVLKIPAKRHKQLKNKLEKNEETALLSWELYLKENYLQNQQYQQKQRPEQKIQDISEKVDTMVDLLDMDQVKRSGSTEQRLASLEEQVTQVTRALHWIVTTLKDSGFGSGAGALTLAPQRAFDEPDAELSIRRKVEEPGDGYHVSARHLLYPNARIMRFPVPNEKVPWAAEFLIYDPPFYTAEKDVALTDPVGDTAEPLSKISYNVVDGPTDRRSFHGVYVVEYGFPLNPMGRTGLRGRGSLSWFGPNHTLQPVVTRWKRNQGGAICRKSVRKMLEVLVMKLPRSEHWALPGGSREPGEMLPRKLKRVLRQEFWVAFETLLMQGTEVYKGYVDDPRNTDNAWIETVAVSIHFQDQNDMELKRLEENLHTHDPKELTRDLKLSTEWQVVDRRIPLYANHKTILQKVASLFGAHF

`Clc1ccc(COC(Cn2ccnc2)c2ccc(Cl)cc2Cl)cc1` (stereo not drawn) [Econazole]: the PMN directionality result with PMN (Neutrophil) was “significantly inhibited”. For the same molecule, the “Ca2+ influx” value on TRPM2 is “blocked”.
In the case of `O=C(O)c1ccccc1Nc1cccc(C(F)(F)F)c1` [FA], the “Ca2+ influx” value at TRPM2 was “blocked”.
In the case of `CN(C)c1cccc(-c2c3c(=O)n(-c4ccccc4Cl)[nH]c3cc(=O)n2C)c1` [GKT137831], the “hypoxia-induced pulmonary vascular cell proliferation” value at Nox4 is “attenuates”.
In the case of `[HH]` [H2, hydrogen], the “lung injury in polymicrobial sepsis” value in the series with polymicrobial sepsis is “significantly attenuated”. The “brain injury associated with focal ischemia-reperfusion” value in the series on brain injury was “markedly suppressed”. The “LPS-induced pulmonary early and late NF-κB activation” value in the series on NF-κB is listed as “inhibited”. Also, in series [1], the “lung injury after intratracheal LPS” value was “significantly improved”; the “pulmonary inflammation and cell apoptosis” value is “down-regulated”.
`CC#CCC(C)[C@H](O)/C=C/[C@@H]1[C@H]2C/C(=C/CCCC(=O)O)C[C@H]2C[C@H]1O` (stereo partly drawn) [Iloprost]: the “dermal CTGF levels” value with CTGF [2] is recorded as “marked decrease”. Also, in the series on CTGF [3], the “increase in collagen synthesis” value is “blocks” and the “induction of CTGF” value was “blocks”.
Turning to `CC(=O)N[C@@H](CS)C(=O)O` [N-acetylcysteine], the “Ang II-stimulated DNA synthesis, cell migration, pro-collagen α1(I) mRNA expression, secretion of TGF-β1 and inflammatory cytokines” value in the series with Angiotensin II is on record as “attenuated”.
For the molecule `[N]=O` [NO, nitric oxide], the lung collagen accumulation result with neonatal piglets is reported as “increases”. For the same molecule, in the series on polymicrobial sepsis, the “lung injury in polymicrobial sepsis” value is on record as “significantly attenuated”. Besides, the “LPS-induced pulmonary early and late NF-κB activation” value with NF-κB is listed as “inhibited”. Moreover, in series [1], the “lung injury after intratracheal LPS” value is listed as “significantly improved”; the “pulmonary inflammation and cell apoptosis” value is “down-regulated”. The “survival in high O2 exposure” value in the series with rats is listed as “increase”.
Take `COC(=O)[C@@H](N)CCCNC(=N)N[N+](=O)[O-]` [Nw-nitro-l-arginine methyl ester]: in the series with neonatal rats, the “survival on exposure to >95% O2 compared with control rats” value is reported as “significantly fewer survived”.
Turning to `O=O` [O2, oxygen], the lung collagen accumulation entry with neonatal piglets was “increases”.
Regarding `Clc1ccccc1C(c1ccccc1)(c1ccccc1)n1ccnc1` [clotrimazole], the PMN directionality entry with PMN (Neutrophil) is recorded as “significantly inhibited”. The “Ca2+ influx” value on TRPM2 is “blocked”.
On to `c1ccc2c(c1)[I+]c1ccccc1-2` [diphenylene iodonium], for which the “Ang II-stimulated DNA synthesis, cell migration, pro-collagen α1(I) mRNA expression, secretion of TGF-β1 and inflammatory cytokines” value with Angiotensin II is recorded as “attenuated”.

Source of the values: patent publication US20170182088A1, “METHOD AND APPARATUS FOR ADMINISTERING NITRIC OXIDE WITH SUPPLEMENTAL DRUGS” (GENO LLC, priority 2015, published 2017).
